Test results taken from ChEMBL document CHEMBL1134265, “2-Aryl indole NK1 receptor antagonists: optimisation of the 2-aryl ring and the indole nitrogen substituent” (Bioorg Med Chem Lett, 2001).
pIC50: −log10 of the molar value.

Key:
[1] = biological target: T1, Substance-P receptor (Homo sapiens, UniProt P25103); assay: Concentration required for displacement of [125I]-labeled substance P from cloned hNK1 receptor expressed in CHO cells(*).; assay type: cell-based
[2] = test system: Gerbillinae; assay: In vivo percent inhibition of gerbil foot-tapping after 3 mg/kg, iv administration prior to icv infusion of GR-73632 in vehicle-treated animals; assay type: functional
[3] = biological target: T1, Substance-P receptor; assay: Tested for displacement of [125I]-labeled substance P from cloned hNK1 receptor expressed in CHO cells (*); assay type: cell-based; conditions: concentration not given here
[4] = test system: Gerbillinae; assay: In vivo inhibitory dose against gerbil foot-tapping after iv administration prior to icv infusion of GR-73632 in vehicle-treated animals; assay type: functional; conditions: read-out: ID50 (the source's name)
[5] = test system: Gerbillinae; assay: In vivo inhibitory dose against gerbil foot-tapping after iv administration prior to icv infusion of GR-73632 for a duration of 5 min in vehicle-treated animals; assay type: functional; conditions: read-out: ID50 (the source's name)
[6] = biological target: T1, Substance-P receptor; assay: Tested for displacement of [125I]-labeled substance P from cloned hNK1 receptor expressed in CHO cells at 100 nM; assay type: cell-based

T1 sequence (P25103 whole entry, the tested form may be a part): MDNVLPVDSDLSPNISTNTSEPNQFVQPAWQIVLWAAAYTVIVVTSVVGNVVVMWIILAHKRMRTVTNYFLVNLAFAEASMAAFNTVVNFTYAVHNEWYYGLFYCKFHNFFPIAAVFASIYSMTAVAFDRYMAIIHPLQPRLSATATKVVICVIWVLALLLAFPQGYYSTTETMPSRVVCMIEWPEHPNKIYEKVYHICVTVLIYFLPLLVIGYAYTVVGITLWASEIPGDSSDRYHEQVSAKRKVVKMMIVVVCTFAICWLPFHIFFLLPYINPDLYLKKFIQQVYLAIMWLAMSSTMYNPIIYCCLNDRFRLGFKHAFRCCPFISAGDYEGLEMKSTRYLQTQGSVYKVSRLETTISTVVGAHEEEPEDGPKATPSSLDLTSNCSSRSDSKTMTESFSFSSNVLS

pIC50 [1] | Structure (SMILES) | other results
9.04 | Cn1c(-c2cccnc2)c(CCC(=O)N2CCC(O)(Cc3ccccc3)CC2)c2cc(Cl)ccc21 | –
8.20 | COc1ccccc1N1CCN(C(=O)CCc2c(-c3ccc(C(C)(C)C)cc3)[nH]c3ccc(C)cc23)CC1 | –
7.82 | COC(=O)Cn1c(-c2ccc(Cl)cc2)c(CCC(=O)N2CCN(c3ccccc3OC)CC2)c2cc(Cl)ccc21 | –
– | COc1ccccc1N1CCN(C(=O)CCc2c(-c3ccc(Cl)cc3)[nH]c3ccc(C)cc23)CC1 | inhibition in vivo at 3 mg/kg [2]: 22%
8.54 | Cn1c(-c2ccccn2)c(CCC(=O)N2CCC(O)(Cc3ccccc3)CC2)c2cc(Cl)ccc21 | –
– | COc1ccccc1N1CCN(C(=O)CCc2c(-c3ccc(Br)cc3)[nH]c3ccc(C)cc23)CC1 | inhibition in vivo at 3 mg/kg [2]: 46%
9.55 | COc1ccccc1N1CCN(C(=O)CCc2c(-c3ccc(Cl)cc3)n(C)c3ccc(Cl)cc23)CC1 | –
9.01 | COc1ccccc1N1CCN(C(=O)CCc2c(-c3ccc(Cl)cc3)n(CCO)c3ccc(Cl)cc23)CC1 | –
– | COc1ccccc1N1CCN(C(=O)CCc2c[nH]c3ccc(C)cc23)CC1 | inhibition [3]: 18%
9.92 | Cc1ccc(-c2c(CCC(=O)N3CCC(O)(Cc4ccccc4)CC3)c3cc(Cl)ccc3n2C)cn1 | ED50 [4]: 0.68 mg/kg
8.10 | COc1cccc(-c2[nH]c3ccc(C)cc3c2CCC(=O)N2CCN(c3ccccc3OC)CC2)c1 | –
8.21 | COc1ccccc1N1CCN(C(=O)CCc2c(-c3ccccc3)[nH]c3ccc(C)cc23)CC1 | –
9.96 | COc1ccccc1N1CCN(C(=O)CCc2c(-c3ccc(Cl)cc3)n(C)c3ccc(C)cc23)CC1 | inhibition in vivo at 3 mg/kg [2]: 100%
9.85 | COc1ccccc1N1CCN(C(=O)CCc2c(-c3ccc(C(F)(F)F)cc3)n(C)c3ccc(C)cc23)CC1 | inhibition in vivo at 3 mg/kg [2]: 93%
– | COc1ccccc1N1CCN(C(=O)CCc2c(-c3ccncc3)[nH]c3ccc(C)cc23)CC1 | inhibition [3]: 58%
8.82 | COc1ccc(-c2[nH]c3ccc(C)cc3c2CCC(=O)N2CCN(c3ccccc3OC)CC2)cc1 | –
9.85 | COc1ccccc1N1CCN(C(=O)CCc2c(-c3ccc(Br)cc3)n(C)c3ccc(C)cc23)CC1 | inhibition in vivo at 3 mg/kg [2]: 100%; ED50 [5]: 0.5 mg/kg
6.99 | COc1ccccc1N1CCN(C(=O)CCc2c(-c3ccc(Cl)cc3)n(CC3CC3)c3ccc(Cl)cc23)CC1 | –
9.36 | COc1ccccc1N1CCN(C(=O)CCc2c(-c3ccc(C(F)(F)F)cc3)[nH]c3ccc(C)cc23)CC1 | –
8.28 | COc1ccccc1N1CCN(C(=O)CCc2c(-c3ccc(Cl)cc3)n(C(C)C)c3ccc(Cl)cc23)CC1 | –
9.70 | COc1ccccc1N1CCN(C(=O)CCc2c(-c3ccc(C(C)C)cc3)[nH]c3ccc(C)cc23)CC1 | inhibition in vivo at 3 mg/kg [2]: 100%
9.92 | Cn1c(-c2ccc(C(F)(F)F)cn2)c(CCC(=O)N2CCC(O)(Cc3ccccc3)CC2)c2cc(Cl)ccc21 | ED50 [4]: 0.1 mg/kg
7.05 | COc1ccccc1N1CCN(C(=O)CCc2c(-c3ccccc3Br)[nH]c3ccc(C)cc23)CC1 | –
– | COc1ccccc1N1CCN(C(=O)CCc2c(-c3cccc(Br)c3)[nH]c3ccc(C)cc23)CC1 | inhibition [3]: 37%
8.12 | COc1ccccc1N1CCN(C(=O)CCc2c(-c3ccc(-c4ccccc4)cc3)[nH]c3ccc(C)cc23)CC1 | –
7.02 | COc1ccccc1N1CCN(C(=O)CCc2c(-c3ccc(Cl)cc3)n(Cc3ccccc3)c3ccc(Cl)cc23)CC1 | –
9.48 | COc1ccccc1N1CCN(C(=O)CCc2c(-c3ccc(C(C)C)cc3)n(C)c3ccc(C)cc23)CC1 | inhibition in vivo at 3 mg/kg [2]: 100%
7.09 | COc1ccccc1-c1[nH]c2ccc(C)cc2c1CCC(=O)N1CCN(c2ccccc2OC)CC1 | –
– | COc1ccccc1N1CCN(C(=O)CCc2c3n(c4ccc(C)cc24)Cc2ccccc2-3)CC1 | inhibition [6]: 55%
